Values after ≈ are worked out from the molar mass of the structure shown.
Assays:
Type in all cases: cell-based
[1] = tested on: Candida albican ATCC MYA-575; assay: In vitro antifungal activity (MIC80), Candida albican ATCC MYA-575; settings: Candida; Table 2, MYA 575; read-out: Minimal inhibitory concentration (MIC80)
Protocol: (§1) In vitro antifungal activities of the inventive antifungal compounds were evaluated using test strains including Candida albican (ATCC 90873, 204276, 62342, 64124, 64550, 96901, MYA-573, MYA-574, MYA-575, MYA-576, MYA-1003) and Aspergillus fumigatus (ATCC 16424). Test samples and positive control samples were prepared by dissolving the inventive compounds and comparative compounds, i.e., amphotericin B, fluconazole and itraconazole, in DMSO, respectively, and each successively diluted with medium to obtain test and positive control solutions having test compound concentrations of 0.125 μg/ml to a maximum concentration not generating turbidity. Minimal inhibitory concentration (MIC80) of each compound was determined as the lowest concentration of the test compounds required to reduce growth by 80% relative to a control strain not treated.
(§2) 1) Test strain: Candida albican ATCC 90873, 204276, 62342, 64124, 64550, 96901, MYA-573, MYA-574, MYA-575, MYA-576, MYA-1003, and Aspergillus fumigatus ATCC 16424 were commercially obtained from The American Type Culture Collection (ATCC) and subcultured in CHEMON Co. Ltd. (amphotericin B was commercially purchased from Sigma, and fluconazole and itraconazole were prepared according to methods described in British Patent No. 2,099,818; and U.S. Pat. No. 4,267,179, respectively).
(§3) 2) Medium and culture condition: Candida albican was cultured in Sabourad Dextrose Agar, YM Agar or Potato Dextrose Agar according to ATCC information at a temperature of 37° C., 35° C., 30° C. or 25° C. Aspergillus fumigatus was cultured in Malt Extract Agar or Potato Dextrose Agar at a temperature ranging from 24 to 27° C.
(§4) 3) Preparation of test samples: the inventive compounds and comparative compounds were each diluted with DMSO to obtain 1 to 2 ml of a test sample in a concentration of 100-folds of the determining maximum concentration (256 μg/ml).
(§5) The test samples were each successively diluted with RPMI 1640 to obtain test solutions having concentrations of […] in a 12×75 mm sterilized disposable culture tube. The final concentration of DMSO was adjusted to […] (v/v).
(§6) 5) Preparation of strain solution and inoculation
(§7) Candida albican strains were each subcultured in Sabourad Dextrose Agar, YM Agar or Potato Dextrose Agar medium at 35° C. for 2˜3 days. In the case of yeasts, a single colony was taken from prominent colonies and suspended in 0.85% sterile physiological saline solution and the turbidity of the suspension was adjusted to 80˜82% at 530 nm, and then diluted 50-fold with RPMI 1640 medium to 1.0×10^3˜5.0×10^3 CFU/ml. The turbidity of fungi was adjusted to 80˜82% and the suspension was diluted 50-fold to […]. Aspergillus fumigatus strains were subcultured in Malt Extract Agar for 7˜10 days, and a single colony was taken from prominent colonies and suspended in 0.85% sterile physiological saline solution and the suspension was adjusted to 0.108 at 530 nm, and then diluted 1000-fold with RPMI 1640 medium to 0.4×10^2˜5×10^4 CFU/ml. The turbidity of fungi was adjusted to 80˜82% and the suspension was diluted 50-fold to 0.4102˜0.5104 CFU/ml.
(§8) The strain solutions thus obtained were each seeded into a sterilized 96-well microplate, 0.1 ml of each test solution were added thereto, and […] of alamarblue was treated to each well (Biosource, #DAL1100). This procedure was repeated 2 times.
(§9) Minimal inhibitory concentration (MIC80) of each compound was determined as the lowest concentration of the test compounds required to reduce growth by 80% relative to a control strain not treated.

[2] = tested on: Candida albican ATCC 62342; assay: In vitro antifungal activity (MIC80), Candida albican ATCC 62342; settings: Candida, ATCC62342; Table 2, 62342; read-out: Minimal inhibitory concentration (MIC80)
Protocol: as §1, §2, §3, §4, §5, §6, §7, §8, §9

[3] = tested on: Candida albican ATCC 64124; assay: In vitro antifungal activity (MIC80), Candida albican ATCC 64124; settings: Candida, ATCC64124; Table 2, 64124; read-out: Minimal inhibitory concentration (MIC80)
Protocol: as §1, §2, §3, §4, §5, §6, §7, §8, §9

[4] = tested on: Candida albican ATCC MYA-573; assay: In vitro antifungal activity (MIC80), Candida albican ATCC MYA-573; settings: Candida; Table 2, MYA 573; read-out: Minimal inhibitory concentration (MIC80)
Protocol: as §1, §2, §3, §4, §5, §6, §7, §8, §9

[5] = tested on: Candida albican ATCC 90873; assay: In vitro antifungal activity (MIC80), Candida albican ATCC 90873; settings: Candida, ATCC90873; Table 2, ATCC 90873; read-out: Minimal inhibitory concentration (MIC80)
Protocol: as §1, §2, §3, §4, §5, §6, §7, §8, §9

[6] = tested on: Candida albican ATCC 64550; assay: In vitro antifungal activity (MIC80), Candida albican ATCC 64550; settings: Candida, ATCC64550; Table 2, 64550; read-out: Minimal inhibitory concentration (MIC80)
Protocol: as §1, §2, §3, §4, §5, §6, §7, §8, §9

[7] = tested on: Candida albican ATCC 96901; assay: In vitro antifungal activity (MIC80), Candida albican ATCC 96901; settings: Candida, ATCC96901; Table 2, ATCC 96901; read-out: Minimal inhibitory concentration (MIC80)
Protocol: as §1, §2, §3, §4, §5, §6, §7, §8, §9

[8] = tested on: Candida albican ATCC MYA-574; assay: In vitro antifungal activity (MIC80), Candida albican ATCC MYA-574; settings: Candida; Table 2, MYA 574; read-out: Minimal inhibitory concentration (MIC80)
Protocol: as §1, §2, §3, §4, §5, §6, §7, §8, §9

[9] = tested on: Candida albican ATCC MYA-576; assay: In vitro antifungal activity (MIC80), Candida albican ATCC MYA-576; settings: Candida; Table 2, MYA 576; read-out: Minimal inhibitory concentration (MIC80)
Protocol: as §1, §2, §3, §4, §5, §6, §7, §8, §9

[10] = tested on: Candida albican ATCC MYA-1003; assay: In vitro antifungal activity (MIC80), Candida albican ATCC MYA-1003; settings: Candida; Table 2, MYA 1003; read-out: Minimal inhibitory concentration (MIC80)
Protocol: as §1, §2, §3, §4, §5, §6, §7, §8, §9

| Structure (SMILES) | MIC80 [1] [µg/mL] | MIC80 [2] [µg/mL] | MIC80 [3] [µg/mL] | MIC80 [4] [µg/mL] | MIC80 [5] [µg/mL] | MIC80 [6] [µg/mL] | MIC80 [7] [µg/mL] | MIC80 [8] [µg/mL] | MIC80 [9] [µg/mL] | MIC80 [10] [µg/mL] |
| --- | --- | --- | --- | --- | --- | --- | --- | --- | --- | --- |
| C[C@@H](N1CCN(c2cccc(N(C)CCCN3CCOCC3)n2)CC1)[C@](O)(Cn1cncn1)c1ccc(F)cc1F [Example 27, (2R,3R)-2-(2,4-difluorophenyl)-3-(4-(6-(methyl(3-morpholinopropyl)amino)pyridin-2-yl)piperazin-1-yl)-1-(1H-1,2,4-triazol-1-yl)butan-2-ol] | 1 (≈ 1.75 µM) | 2 (≈ 3.5 µM) | 32 (≈ 56.1 µM) | 4 (≈ 7.01 µM) | 0.25 (≈ 0.438 µM) | 4 (≈ 7.01 µM) | 16 (≈ 28 µM) | 8 (≈ 14 µM) | 0.5 (≈ 0.876 µM) | 64 (≈ 112 µM) |
| C[C@@H](N1CCN(c2cccc(N(C)CCc3cccs3)n2)CC1)[C@](O)(Cn1cncn1)c1ccc(F)cc1F [Example 28, (2R,3R)-2-(2,4-difluorophenyl)-3-(4-(6-(methyl(2-(thiophen-2-yl)ethyl)amino)pyridin-2-yl)piperazin-1-yl)-1-(1H-1,2,4-triazol-1-yl)butan-2-ol] | 1 (≈ 1.81 µM) | > 128 | > 128 | > 128 | 0.25 (≈ 0.452 µM) | > 128 | > 128 | > 128 | 1 (≈ 1.81 µM) | > 128 |
| C[C@@H](N1CCN(c2ccc(OCc3ccccc3)nc2)CC1)[C@](O)(Cn1cncn1)c1ccc(F)cc1F [Example 29, (2R,3R)-3-(4-(6-(benzyloxy)pyridin-3-yl)piperazin-1-yl)-2-(2,4-difluorophenyl)-1-(1H-1,2,4-triazol-1-yl)butan-2-ol] | 0.25 (≈ 0.48 µM) | 0.5 (≈ 0.96 µM) | 4 (≈ 7.68 µM) | 1 (≈ 1.92 µM) | 0.125 (≈ 0.24 µM) | 1 (≈ 1.92 µM) | > 128 | 1 (≈ 1.92 µM) | 0.125 (≈ 0.24 µM) | > 128 |
| C[C@@H](N1CCN(c2ccc(OCC3CC3)nc2)CC1)[C@](O)(Cn1cncn1)c1ccc(F)cc1F [Example 30, (2R,3R)-3-(4-(6-(cyclopropylmethoxy)pyridin-3-yl)piperazin-1-yl)-2-(2,4-difluorophenyl)-1-(1H-1,2,4-triazol-1-yl)butan-2-ol] | 0.125 (≈ 0.258 µM) | 1 (≈ 2.06 µM) | 32 (≈ 66 µM) | 1 (≈ 2.06 µM) | 0.125 (≈ 0.258 µM) | 1 (≈ 2.06 µM) | 32 (≈ 66 µM) | 4 (≈ 8.26 µM) | 0.125 (≈ 0.258 µM) | > 128 |
| C[C@@H](N1CCN(c2ccc(OC3CCCC3)nc2)CC1)[C@](O)(Cn1cncn1)c1ccc(F)cc1F [Example 31, (2R,3R)-3-(4-(6-(cyclopentyloxy)pyridin-3-yl)piperazin-1-yl)-2-(2,4-difluorophenyl)-1-(1H-1,2,4-triazol-1-yl)butan-2-ol] | 0.25 (≈ 0.501 µM) | 1 (≈ 2.01 µM) | 64 (≈ 128 µM) | 2 (≈ 4.01 µM) | 0.125 (≈ 0.251 µM) | 1 (≈ 2.01 µM) | 4 (≈ 8.02 µM) | 4 (≈ 8.02 µM) | 0.25 (≈ 0.501 µM) | > 128 |
| CCCCOc1ccc(N2CCN([C@H](C)[C@](O)(Cn3cncn3)c3ccc(F)cc3F)CC2)cn1 [Example 32, (2R,3R)-3-(4-(6-(butyloxy)pyridin-3-yl)piperazin-1-yl)-2-(2,4-difluorophenyl)-1-(1H-1,2,4-triazol-1-yl)butan-2-ol] | 0.5 (≈ 1.03 µM) | 1 (≈ 2.06 µM) | 4 (≈ 8.22 µM) | 1 (≈ 2.06 µM) | 0.125 (≈ 0.257 µM) | 1 (≈ 2.06 µM) | 8 (≈ 16.4 µM) | 4 (≈ 8.22 µM) | 0.125 (≈ 0.257 µM) | > 128 |
| CC(C)Oc1ccc(N2CCN([C@H](C)[C@](O)(Cn3cncn3)c3ccc(F)cc3F)CC2)cn1 [Example 33, (2R,3R)-2-(2,4-difluorophenyl)-3-(4-(6-(isopropyloxy)pyridin-3-yl)piperazin-1-yl)-1-(1H-1,2,4-triazol-1-yl)butan-2-ol] | 0.125 (≈ 0.265 µM) | 2 (≈ 4.23 µM) | 64 (≈ 135 µM) | 2 (≈ 4.23 µM) | 0.125 (≈ 0.265 µM) | 4 (≈ 8.46 µM) | 64 (≈ 135 µM) | 4 (≈ 8.46 µM) | 0.125 (≈ 0.265 µM) | > 128 |
| C[C@@H](N1CCN(c2ccc(OCCN3CCOCC3)nc2)CC1)[C@](O)(Cn1cncn1)c1ccc(F)cc1F [Example 34, (2R,3R)-2-(2,4-difluorophenyl)-3-(4-(6-(2-morpholinoethoxy)pyridin-3-yl)piperazin-1-yl)-1-(1H-1,2,4-triazol-1-yl)butan-2-ol] | 0.125 (≈ 0.23 µM) | 0.5 (≈ 0.92 µM) | 32 (≈ 58.9 µM) | 2 (≈ 3.68 µM) | 0.125 (≈ 0.23 µM) | 2 (≈ 3.68 µM) | 32 (≈ 58.9 µM) | 2 (≈ 3.68 µM) | 0.125 (≈ 0.23 µM) | 128 (≈ 235 µM) |
| C[C@@H](N1CCN(c2ccc(OCc3cccs3)nc2)CC1)[C@](O)(Cn1cncn1)c1ccc(F)cc1F [Example 35, (2R,3R)-2-(2,4-difluorophenyl)-3-(4-(6-(thiophen-2-ylmethoxy)pyridin-3-yl)piperazin-1-yl)-1-(1H-1,2,4-triazol-1-yl)butan-2-ol] | 0.125 (≈ 0.237 µM) | 0.5 (≈ 0.949 µM) | 8 (≈ 15.2 µM) | 0.5 (≈ 0.949 µM) | 0.125 (≈ 0.237 µM) | 1 (≈ 1.9 µM) | > 128 | 1 (≈ 1.9 µM) | 0.125 (≈ 0.237 µM) | > 128 |
| CC(N1CCN(c2ccc(N(C)CCCN3CCOCC3)nc2)CC1)C(O)(Cn1cncn1)c1ccc(F)cc1F (stereo not drawn) [Example 36] | 2 (≈ 3.5 µM) | 4 (≈ 7.01 µM) | 128 (≈ 224 µM) | 8 (≈ 14 µM) | 2 (≈ 3.5 µM) | 16 (≈ 28 µM) | 16 (≈ 28 µM) | 8 (≈ 14 µM) | 4 (≈ 7.01 µM) | 128 (≈ 224 µM) |
| CC(N1CCN(c2ccc(N(C)CCc3cccs3)nc2)CC1)C(O)(Cn1cncn1)c1ccc(F)cc1F (stereo not drawn) [Example 37] | 0.5 (≈ 0.903 µM) | 1 (≈ 1.81 µM) | 32 (≈ 57.8 µM) | 1 (≈ 1.81 µM) | 0.125 (≈ 0.226 µM) | 4 (≈ 7.22 µM) | > 128 | 2 (≈ 3.61 µM) | 0.5 (≈ 0.903 µM) | > 128 |
| CC(N1CCCN(c2ccc(C#N)nc2)CC1)C(O)(Cn1cncn1)c1ccc(F)cc1F (stereo not drawn) [Example 39] | 0.125 (≈ 0.276 µM) | 4 (≈ 8.82 µM) | 128 (≈ 282 µM) | 1 (≈ 2.21 µM) | 0.125 (≈ 0.276 µM) | 2 (≈ 4.41 µM) | 32 (≈ 70.6 µM) | 2 (≈ 4.41 µM) | 0.125 (≈ 0.276 µM) | 16 (≈ 35.3 µM) |
